This note sets out measurements from patent US20240408071A1, “NOVEL COMBINATION OF SEROTONIN RECEPTOR (5-HTR2B) ANTAGONIST AND AN IMMUNOMODULATOR AND CHEMOTHERAPEUTIC DRUGS FOR INHIBITION OF CANCER” (NATIONAL CENTRE FOR CELL SCIENCE, priority 2021, published 2024).

The subject of the experiment is 4T1-Luc2 cells. Briefly: 4T1-Luc2 breast cancer model, tumor volume. Type of experiment: in vivo, BALB/c mice. Conditions: RS-127445 2 mg/kg/day + paclitaxel 2 mg/kg/alternate days; 4T1-luc2 model (FIG. 16A). The method, then: FIG. 7 depicts that antagonizing the 5-HTR2B in mice inhibits breast and colon tumor growth: (A) MC38 colon cancer cells were injected subcutaneously into the right flank of C57BL/6 mice. […] Tumor volumes were measured and plotted. (B) MC38 colon cancer cells were injected subcutaneously into the right flank of C57BL/6 mice. After seven days when tumors became palpable, one group was treated with 5-HTR7 antagonist SB-269970 (n=6 mice; 3 mg/kg/day) or left untreated (n=6 mice). Tumor volume was measured and plotted. (C) After seven days of the setting of tumor growth, one group was treated with a serotonin transporter blocker (SSRI) sertraline hydrochloride (n=6 mice; 15 mg/kg/week) or left untreated (n=6 mice). Tumor volume was measured and plotted. (D) C57BL/6 mice were given subcutaneously injected MC38 cells. After seven days of tumor growth, one group of mice was treated with different doses of 5-HTR2B antagonist SB-215505 (n=6). Tumor volume was measured and plotted. […] Tumor volume was measured and plotted. […] Tumor growth was measured and plotted. […] Tumour volumes were measured and plotted. […] Tumour volumes were measured and plotted. […]
FIG. 16 depicts the effect of the 5-HTR2B antagonist on the FDA-approved chemotherapy drug treatment: (A) BALB/C mice were inoculated with 4T1-Luc2 cells in the mammary fat pad. […] Tumor volume was measured and plotted. […]

In the case of `CC(C)c1cc(-c2ccc(F)c3ccccc23)nc(N)n1` [RS-127445], the “tumor growth, combination with paclitaxel” value was “much better response by reducing tumor growth than any of them alone”.
